# Test results: US6121253A, “Prostaglandin conjugates for treating or preventing bone disease” (Merck Frosst Canada & Co., priority 1999, dated 2000)
# Like-named read-outs stand apart in the source and are kept apart here.
# Experiments:
# [1] = Uptake/binding of dual-labelled conjugate to human bone powder in fetal bovine serum
# Method: Dual-labelled conjugate 14 ([^3 H]-PGE2 /[^14 C]-alendronate) (21.64 μCi of ^14 C and 19.05 μCi of ^3 H) is placed in 1 ml 100% fetal bovine serum to yield a final concentration of 3.5 μM. […] of this solution is incubated with 10 mg bone powder for 1, 2, 3 and 5 mins with vigorous shaking. The mixture is centrifuged (20 sec), 125 μl aliquot is taken from each sample and counted in 10 ml Atomlight in an LKB liquid scintillation counter, 125 μl of the radioactive sample is also counted at 0 time. The uptake of radioactivity into the bone powder is calculated by subtracting the dpms in the medium counted at the times indicated above from dpms at 0 time and this number is divided by the dpms at 0 time.
# [2] = Dissociation/release of label from human bone powder in fetal bovine serum at 37 C; format: in vitro ADME
# Method: Dissociation of [^3 H]-PGE2 /[^14 C]-alendronate from human bone powder in fetal bovine serum at 37 C is measured by incubating 10 mg of human one powder with 1 μl [^3 H]-PGE2 /[^14 C]-ABP in 1 ml FBS for 5 mins. The mixture is centrifuged (20 sec), 100 μl aliquot is taken and counted in Atomlight in an LKB liquid scintillation counter. The rest of the 900 μl solution is withdrawn, the bone powder is washed once with 1 ml phosphate buffered saline, 1 ml fresh fetal bovine serum is added and incubated with the bone powder for 15, 24, 39, 48, 59, 79 and 103 hours in a shaking bath at 37° C. 100 μl aliquots are withdrawn at these times and counted in 10 ml Atomlight in an LKB liquid scintillation counter. The release of radioactivity from the human bone powder into the medium is calculated as follows: dpms from 100 μl of the [^3 H]-PGE2 /[^14 C]-ABP at 5 mins are subtracted from dpms at 0 time. The resulting dpms reflect radioactivity taken up by bone powder. The dpms obtained by counting 100 μl aliquots at each time point are then divided by the dpms taken up by bone. 13% of the ^3 H-moiety is released into the medium at 15 hrs and by 103 hours 32.9% of the radioactivity is released into the medium.
# [3] = In vivo uptake and release in rat tibiae and femora; set-up: species or system rat (Sprague-Dawley female); conditions: single i.v. dose
# Method: The animals used in this experiment were sacrificed at 24 hours, 14 and 28 days after the compounds claimed in the instant invention were administered. The radioactivity of the ^14 C and ^3 H was measured after incineration of the long bones to determine the percentage of compound retained in the bone. […] High LP levels are normally associated with the breakdown of bone collagen.
# Both compounds are administered i.v. via the tail vein to Sprague-Dawley female rats as a radiolabelled compound, equivalent to about 0.3 μCi/animal, [^3 H]-alendronate is administered to nine rats and [^3 H]-PGE2 /[^14 C]-ABP (dual labelled conjugate 14), is administered to seven rats. After 1, 14 or 28 days, animals are sacrificed by CO2 inhalation and the tibiae and femora are dissected, weighed and then stored at -20° C. The amount of radioactivity incorporated into the bone is determined by incineration in a Packard combuster after first air drying the bone for three days at ambient temperature. The percent of the compound retained in the skeleton at each time point is calculated on the basis of the radioactivity, converted to nmoles/gm bone on the assumption that the skeleton represents 8% of the body weight. The skeletal retention is expressed as percent administered dose.
# [4] = Characterization of 3H liberated on hydrolysis of conjugate in rat plasma; format: in vitro ADME; conditions: conjugate 20, 24 hr, fresh rat plasma, of the initial counts
# Method: A stock solution of 0.4 μCi conjugate 20 or [^3 H]-PGE2 (0.4 μCi) is incubated in either fresh rat plasma, boiled plasma or PBS (ml) at 37 C. After 4 h or 24 h, 100 μl aliquots are removed, diluted with acetonitrile (100 μl), vortexed and centrifuged. 100 μl of supernatant is separated by HPLC (C-18, 0.5% HOAc in water, 66%: acetonitrile 33%, 1 ml/min) with effluent monitored by an on-line scintillation detector and UV detector. No radioactivity is eluted under these conditions when 0.2 μCi, conjugate 20 (62 μg) is applied. (It is necessary to mix 0.4 mg of unlabelled 20 with 0.1 μCi labelled 20 to recover 0.05 μCi from the HPLC.) Radioactive peaks are identified by coelution with authentic [^3 H]-PGE2 and cold PGA2. An authentic sample of PGB2 is prepared by incubating PGE2 (2.4 mg) with 1 ml rat plasma at 37° C. for 24 hr. The sample, purified by HPLC, will have appropriate ^1 H-NMR, UV and MS. To identify radioactive peaks eluting at the solvent front with incubation of conjugate 20 for 24 hr in fresh rat plasma, the fraction is collected and distilled. The collected distillate has 60% of the initial counts.
# [5] = 1, 3 and 6 mg/Kg/day PGE2, rapidly growing rats; cited from earlier work
# [6] = cited from earlier work
# [7] = cited from earlier work; remark: listed apart in the source
# [8] = long term s.c.; adrenal glands, liver, kidneys, and lungs; cited from earlier work
# [9] = oral dosing; cited from earlier work
# [10] = s.c. over 60, 120, and 180 days
smiles,measurement,setting,value
"CCCCC[C@@H](/C=C/[C@H]1[C@H](O)CC(=O)[C@@H]1C/C=C\CCCC(=O)O)OC(=O)CSCCCC(P(=O)(O)O)P(=O)(O)O [Conjugate 14, PGE2 bisphosphonate conjugate]",time of uptake to human bone powder,[1]; in vitro,within one minute
same,uptake of 3H-moiety by human bone powder,[1]; within 1 min,~53%
same,uptake of 14C-moiety by human bone powder,[1]; within 1 min,about 76%
same,uptake of 14C-moiety by human bone powder,"[1]; within 1 min, listed as 14 C/^3 H dual labeled compound",About 77%
same,3H-moiety released into the medium,"[2]; 15 hrs, fetal bovine serum, 37° C.",13%
same,radioactivity released into the medium (3H-moiety),"[2]; 103 hours, fetal bovine serum, 37° C.",32.9%
same,rate of release (disassociation) of PG (3H) moiety from human bone powder,"[2]; fetal bovine serum, 37° C., listed as 14 C/^3 H dual labeled compound",approximately 5 %/day
same,rate of release (disassociation) of PG (3H) moiety from human bone powder,"[2]; fetal bovine serum, 37° C., listed as [^3 H]-PGE2 /[^14 C]-alendronate",About 5 %/day
same,release of the prostaglandin from the bisphosphonate at bone,[2]; radiolabel and radioimmunoassay experiments,confirm release of the prostaglandin from the bisphosphonate at the bone cell site
same,dpms of 14C-moiety in the medium,"[2]; up to 103 hours, fetal bovine serum, 37° C.",not significantly changed
same,uptake into / delivery to bone in vivo,[3],uptake of the labeled compound shown below into rat tibiae and femora after a single dose was administered intravaneously was demonstrated
"CCCCC[C@@H](/C=C/[C@H]1[C@H](O)CC(=O)[C@@H]1C/C=C\CCCC(=O)O)OC(=O)CSCc1cc(CSCC(=O)O[C@H](/C=C/[C@H]2[C@H](O)CC(=O)[C@@H]2C/C=C\CCCC(=O)O)CCCCC)cc(CC(P(=O)(O)O)P(=O)(O)O)c1 [Conjugate 20, Bis-(PGE2)-bisphosphonate conjugate]",counts in collected distillate of radioactive peak eluting at solvent front,[4],60%
CCCCC[C@H](O)/C=C/[C@H]1[C@H](O)CC(=O)[C@@H]1C/C=C\CCCC(=O)O [PGE2],hard tissue mass in the secondary spongiosa of the proximal tibial metaphysis,[5],increase in hard tissue mass
same,number of trabeculae,[5],increase in the number of trabeculae
same,periosteal and corticoendosteal bone mass,[6]; daily s.c. administration,increases periosteal and corticoendosteal bone mass
same,bone activity,[6]; [10],elevated bone activity
same,tibial diaphyseal bone mass,[6]; [10],increased tibial diaphyseal bone mass
same,serum phosphate levels,[7]; 1 mg of PGE2,significant decreases
same,side effects,"[7]; s.c., doses of 3 mg/Kg/day or higher, rats",diarrhea and flushing of the extremities along with weight loss
same,soft tissue weight,[8],"soft tissue weight increases in adrenal glands, liver, kidneys, and lungs"
same,side effects,[9],"loose stools, diarrhea, vomiting, infected sclerae, and increased serum alkaline phosphatase levels"
